Measurements taken from patent US20250228800A1, “Treatment of nasal cavity inflammation and mucus hypersecretion” (priority 2024, published 2025).
Read-outs that look alike come from different tables or passages of the source.

Assays:
TRPA1 = biological target: T1, TRPA1 (Homo sapiens, UniProt O75762); assay: Bioassay in cells transfected with TRPA1, Prof. Lee laboratory, Duke University; format: cell-based
T1 construct: expressed in transfected cells
Description: Data from the laboratory of Prof. Seok-Yong Lee's at Duke University.
Seok-Yong Lee at Duke University (FIG. 3).

tongue = assay: Oral cavity screen, 15 mg of white crystals on dorsal surface of the tongue; format: in vivo, human
Protocol: The first screening tests conducted in this discovery to assess candidates that produce refreshing cooling in the oral cavity. Test agents, prepared as 15 mg of white crystals, were placed on the dorsal surface of the tongue. The chemical structures and identifying characteristics are in Table 1.

TRPM8 [1] = biological target: T2, TRPM8 (Homo sapiens, UniProt Q7Z2W7); conditions: Ref#6; cited from earlier work
TRPM8 [2] = biological target: T2, TRPM8; conditions: Ref#2; cited from earlier work
[3] = biological target: mouse cold-menthol receptor TRPM8 (Mus musculus, UniProt Q8R4D5); conditions: Ref#1; cited from earlier work
TRPM8 [4] = biological target: T2, TRPM8; conditions: Ref#3; cited from earlier work
philtrum skin = assay: Philtrum skin assay of cooling; format: in vivo, human; conditions: for Duration (min) of cooling / Comments (sensation): 8% wt/vol gel on philtrum skin
Description: Wei (2012) proposed the use of the skin on the philtrum as a test site for cooling activity of chemicals. The philtrum is the midline groove above the upper lip border and vermilion and is the drug application site. The gel is placed on the philtrum with a cotton-tipped applicator up to the nasolabial folds and sometimes, but not deliberately, on the lower nostrils (subnasale). Cold receptors densely innervate the philtrum skin, second only to the surfaces of the eyeball, nasal surfaces, and anogenitalia. The lips also have a high density of “cold spots.” This is called the philtrum assay. The test substance is dissolved in a carrier, such as solvent, gel, or ointment and applied to the philtrum, a surface area of ˜10 to 12 cm2. The subject records sensations on the philtrum and environs on a scale of 0 to 3, as: 0=no changes in sensation, 1=a slight feeling of coolness, cold or tingling, 2=a clearcut feeling of coolness or cold and 3=a robust feeling of coolness and cold. The intervals for measurements are usually 0, 1, 3, 5 min after application, and at then 5 min or longer intervals thereafter until two successive zeros are obtained. Test substances are applied to the philtrum using a cotton-tipped applicator (Puritan Cotton-tipped applicators, or Q-Tips). The applicator tip is dipped into a reservoir bottle containing the liquid or semi-liquid (gel) test substance. The composition adhering to the cotton (about 0.2 mL) is put on the skin. A subject can practice the method in front of a mirror with a high-intensity light source.

skin = conditions: for treatment of skin dysesthesia (insect bites, skin allergies, thermal injury): topical gel on skin
TRPM8 [5] = biological target: T2, TRPM8; assay: Bioassay of FEMA 4557 (BUDA) on TRPM8, Prof. Lee laboratory, Duke University; format: cell-based
nasal cavity = assay: Study 1: NasoNeb nebulizer delivery to nasal cavity of subjects with rhinitis; format: in vivo, human
Protocol: Study 1. In this first study, a specialized nebulizer with an electronically controlled compressor was used to deliver FEMA 4557 to the nasal cavity of subjects with rhinitis. A typical dosage regimen was a 1.0 to 1.5% wt/vol solution (10 to 15 mg/mL) of FEMA 4557 over a 3 to 5 sec delivery period. […] No attempt was made to differentiate between delivered versus retained dose. The severity of rhinitis was quantified by gravimetric measurement of secretions and exudates from the nasal cavity (FIG. 15). Subjects were instructed to blow into a pre-weighed paper tissue and record the weight of the tissue after blowing. The tissue was inspected and marked as clear, with streaks of exudates, or dense gel. The nasal blowouts fell into three distinct categories of weights that were easy to recognize. […] The weight of the blowouts provides an objective index of nasal cavity inflammation. Nasal secretions were inhibited by topical administration of FEMA 4557, dissolved at 15 mg/ml in an ethanol, polysorbate 80, and saline mixture (FIG. 16). A Nasoneb® apparatus delivered FEMA 4557 into the nasal cavity (FIG. 13). The test substance was sprayed into the nasal cavity for 5 sec at t=0, 2, and 5 hr. The data points were fitted by linear regression (GraphPad Prism), and the 10-hr secretion was measured as ([…]). The results were vehicle 3.16±0.10 g and FEMA 4557 1.86±0.07 g, with n=6 and 5 observations per group, respectively. […] Inhibition of nasal secretions by topical administration of FEMA 4557, 15 mg/ml, delivered into the nasal cavity, is further illustrated by plotting the individual blowout units, in g per blowout FIG. 17. The test substances were sprayed into the nasal cavity for 5 sec at t=0, 2, and 5 hr. […] Thus, the anti-inflammatory effect of FEMA 4557 is further confirmed.

T2 sequence (Q7Z2W7 whole entry, species assumed): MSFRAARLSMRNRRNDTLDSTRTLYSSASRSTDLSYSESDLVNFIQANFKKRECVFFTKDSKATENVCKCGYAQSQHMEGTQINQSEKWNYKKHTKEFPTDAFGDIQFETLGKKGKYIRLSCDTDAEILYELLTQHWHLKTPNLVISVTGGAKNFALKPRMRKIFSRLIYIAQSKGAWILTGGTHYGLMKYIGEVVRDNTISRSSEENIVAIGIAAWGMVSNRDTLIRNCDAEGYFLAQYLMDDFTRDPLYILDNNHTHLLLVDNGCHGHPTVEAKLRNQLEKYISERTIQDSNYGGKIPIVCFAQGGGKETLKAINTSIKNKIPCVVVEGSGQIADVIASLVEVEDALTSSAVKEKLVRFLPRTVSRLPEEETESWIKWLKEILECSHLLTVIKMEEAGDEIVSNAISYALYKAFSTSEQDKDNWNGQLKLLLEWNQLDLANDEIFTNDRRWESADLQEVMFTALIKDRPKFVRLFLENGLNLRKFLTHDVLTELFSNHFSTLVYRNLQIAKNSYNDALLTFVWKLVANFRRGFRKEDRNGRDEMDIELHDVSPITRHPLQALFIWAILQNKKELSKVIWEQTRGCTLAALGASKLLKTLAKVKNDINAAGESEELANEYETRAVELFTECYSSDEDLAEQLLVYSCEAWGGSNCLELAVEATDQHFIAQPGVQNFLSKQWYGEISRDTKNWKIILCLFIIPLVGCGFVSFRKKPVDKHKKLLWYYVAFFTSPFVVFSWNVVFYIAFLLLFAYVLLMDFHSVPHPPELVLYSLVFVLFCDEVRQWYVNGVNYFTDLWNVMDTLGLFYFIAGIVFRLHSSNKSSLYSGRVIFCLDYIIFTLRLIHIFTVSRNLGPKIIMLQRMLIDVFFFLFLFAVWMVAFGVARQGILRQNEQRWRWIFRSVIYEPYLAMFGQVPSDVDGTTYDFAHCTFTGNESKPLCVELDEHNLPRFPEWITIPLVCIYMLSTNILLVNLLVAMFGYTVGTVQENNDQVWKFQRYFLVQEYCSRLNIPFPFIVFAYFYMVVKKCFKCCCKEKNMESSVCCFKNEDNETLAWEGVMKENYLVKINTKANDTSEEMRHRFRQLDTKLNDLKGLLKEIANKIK
T1 sequence (O75762 whole entry, species assumed): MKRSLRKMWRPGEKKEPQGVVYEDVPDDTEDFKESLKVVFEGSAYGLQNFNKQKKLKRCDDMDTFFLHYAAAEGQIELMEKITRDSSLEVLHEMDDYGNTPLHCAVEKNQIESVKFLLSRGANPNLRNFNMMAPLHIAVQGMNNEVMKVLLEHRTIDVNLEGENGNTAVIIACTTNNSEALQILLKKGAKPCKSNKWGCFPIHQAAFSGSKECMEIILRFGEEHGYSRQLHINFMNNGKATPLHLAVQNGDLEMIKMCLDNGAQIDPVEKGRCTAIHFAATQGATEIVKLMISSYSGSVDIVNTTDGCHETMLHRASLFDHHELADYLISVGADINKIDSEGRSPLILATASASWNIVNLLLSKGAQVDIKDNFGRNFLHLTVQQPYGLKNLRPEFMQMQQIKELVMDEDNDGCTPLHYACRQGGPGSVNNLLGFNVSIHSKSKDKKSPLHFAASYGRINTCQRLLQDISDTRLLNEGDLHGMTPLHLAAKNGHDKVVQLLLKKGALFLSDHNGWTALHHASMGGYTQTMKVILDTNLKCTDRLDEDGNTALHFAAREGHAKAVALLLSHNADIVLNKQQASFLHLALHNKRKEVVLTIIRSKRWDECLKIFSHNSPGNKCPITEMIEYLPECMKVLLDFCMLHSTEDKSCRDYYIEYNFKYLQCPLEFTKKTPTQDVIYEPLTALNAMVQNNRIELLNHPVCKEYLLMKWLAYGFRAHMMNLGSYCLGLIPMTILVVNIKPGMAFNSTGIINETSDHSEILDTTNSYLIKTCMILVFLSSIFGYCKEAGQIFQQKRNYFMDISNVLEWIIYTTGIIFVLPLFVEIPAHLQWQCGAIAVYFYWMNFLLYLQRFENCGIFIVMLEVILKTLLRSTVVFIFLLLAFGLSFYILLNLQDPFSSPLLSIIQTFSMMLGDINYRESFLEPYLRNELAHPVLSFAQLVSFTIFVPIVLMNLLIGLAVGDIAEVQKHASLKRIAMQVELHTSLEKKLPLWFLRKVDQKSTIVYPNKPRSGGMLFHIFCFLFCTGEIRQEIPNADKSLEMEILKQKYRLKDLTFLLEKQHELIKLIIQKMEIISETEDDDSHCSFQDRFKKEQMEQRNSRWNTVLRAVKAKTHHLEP
Sequence of mouse cold-menthol receptor TRPM8 (Q8R4D5 whole entry): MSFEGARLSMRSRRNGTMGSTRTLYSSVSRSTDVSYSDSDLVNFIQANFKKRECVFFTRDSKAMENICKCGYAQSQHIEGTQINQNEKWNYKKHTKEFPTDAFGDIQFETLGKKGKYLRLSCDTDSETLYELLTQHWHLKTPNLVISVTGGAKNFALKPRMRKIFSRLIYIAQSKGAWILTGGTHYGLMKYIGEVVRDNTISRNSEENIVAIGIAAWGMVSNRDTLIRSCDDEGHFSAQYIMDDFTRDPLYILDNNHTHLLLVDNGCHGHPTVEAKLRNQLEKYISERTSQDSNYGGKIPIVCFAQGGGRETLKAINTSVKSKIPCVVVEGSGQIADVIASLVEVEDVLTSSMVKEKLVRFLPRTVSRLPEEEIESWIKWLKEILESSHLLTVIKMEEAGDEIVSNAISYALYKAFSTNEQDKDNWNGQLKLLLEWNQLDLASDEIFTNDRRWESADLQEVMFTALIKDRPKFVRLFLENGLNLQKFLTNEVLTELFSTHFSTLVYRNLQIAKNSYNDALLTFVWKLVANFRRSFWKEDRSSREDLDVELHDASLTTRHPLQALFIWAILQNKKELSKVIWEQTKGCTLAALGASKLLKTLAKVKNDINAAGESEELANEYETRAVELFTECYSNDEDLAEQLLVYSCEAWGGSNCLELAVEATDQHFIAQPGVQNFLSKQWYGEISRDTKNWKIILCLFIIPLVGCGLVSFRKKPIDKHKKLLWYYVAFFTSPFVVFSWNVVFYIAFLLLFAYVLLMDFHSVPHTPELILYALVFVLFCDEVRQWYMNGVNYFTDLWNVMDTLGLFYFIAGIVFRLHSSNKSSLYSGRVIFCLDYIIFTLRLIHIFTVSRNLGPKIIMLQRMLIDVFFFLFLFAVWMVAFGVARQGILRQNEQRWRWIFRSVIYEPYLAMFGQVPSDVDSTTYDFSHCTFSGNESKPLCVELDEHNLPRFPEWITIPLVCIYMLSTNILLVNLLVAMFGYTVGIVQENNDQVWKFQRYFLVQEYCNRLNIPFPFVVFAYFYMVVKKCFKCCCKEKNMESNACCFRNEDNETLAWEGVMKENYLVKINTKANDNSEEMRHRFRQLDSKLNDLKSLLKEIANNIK

**Q.** For `C=CCN=C=S` [AITC, allyl isothiocyanate], which “activity on TRPA1” value (TRPA1) is on record?
**A.** active

**Q.** For `CC(C)OC(=O)CNC(=O)[C@@H]1C[C@H](C)CC[C@H]1C(C)C` [Ax-8, p-Menthane-Gly- OiPr], which “Effects of 15 mg on tongue (duration)” value (tongue) is on record?
**A.** ~27 min

**Q.** And the “Effects of 15 mg on tongue (sensation)” value (tongue)?
**A.** pleasant cooling in oral cavity

**Q.** For `CCOC(=O)[C@@H](C)NC(=O)[C@@H]1C[C@H](C)CC[C@H]1C(C)C` [CPS-369], which EC50 (TRPM8 [1]) is on record?
**A.** 65 µM

**Q.** And the EC50 (TRPM8 [2])?
**A.** 3.6 µM

**Q.** Which EC50 [3] does the source give for `CC(C)[C@@H]1CC[C@@H](C)C[C@H]1OCC(O)CO` (some centres unmarked) [Cool 10, menthoxypropanediol] here?
**A.** 6 µM

**Q.** With `CCCCCCCP(=O)(C(C)C)C(C)C` [Cryosim-1, 1-diisopropyl-phosphorylheptane] as the compound, how does the “Effects of 15 mg on tongue (sensation)” value (tongue) read?
**A.** stinging, painful cold

**Q.** For `CCNC(=O)C(CC)(C(C)C)C(C)C` [FEMA 4557, N-ethyl-2,2-diisopropyl butanamide], which EC50 (TRPM8 [4]) is on record?
**A.** 1.6 µM

**Q.** And the “Effects of 15 mg on tongue (duration)” value (tongue)?
**A.** > 35 min

**Q.** And the “average time of cooling” value (philtrum skin; 2% concentration)?
**A.** 50 min

**Q.** And the “average time of cooling” value (philtrum skin; 4% concentration)?
**A.** 95 min

**Q.** And the “average time of cooling” value (philtrum skin; 8% concentration)?
**A.** ≥ 175 min

**Q.** What about the duration of cooling (philtrum skin; 8% gel, FIG. 4) of the same compound?
**A.** ~3 h

**Q.** What about the “Duration (min) of cooling” value (philtrum skin) of the same compound?
**A.** 180+ min

**Q.** And the “irritation of the skin” value (philtrum skin; concentrations of up to 12% weight/volume on philtrum skin)?
**A.** no irritation of the skin was observed with FEMA

**Q.** And the “tissue irritation or inflammation on skin” value (skin; human, in vivo)?
**A.** no tissue irritation or inflammation appeared on the skin

**Q.** And the “duration of stopping irritation of an insect sting” value (skin; topical gel 8 to 16% wt/vol)?
**A.** ≥ 3 h

**Q.** What about the “onset of stopping irritation of an insect sting” value (skin; topical gel 8 to 16% wt/vol) of the same compound?
**A.** less than 3 minutes

**Q.** And the “topical concentration with anti-inflammatory activity on skin” value (skin; total dose of several mg)?
**A.** ≥ 5 % wt/vol

**Q.** And the “activity on TRPA1” value (TRPA1)?
**A.** not active

**Q.** And the “EC50 relative to that of l-menthol” value (TRPM8 [5])?
**A.** about 1/30

**Q.** And the “10-hr nasal secretion (avg.±s.e.m)” value (nasal cavity; 15 mg/mL, 5 sec at t=0, 2 and 5 hr, NasoNeb, n=5, vehicle 3.16±0.10 g)?
**A.** 1.86±0.07 g

**Q.** What about the “individual nasal blowouts (average±s.e.m.)” value (nasal cavity; 15 mg/mL, 5 sec at t=0, 2 and 5 hr, NasoNeb, n=56, vehicle 0.38±0.03 g) of the same compound?
**A.** 0.21 ± 0.03 g

**Q.** And the “concentration that stops stuffiness of rhinitis and inhibits phlegm secretion” value (nasal cavity; applied to inflamed nasal membranes)?
**A.** ≤ 1.5 % wt/vol

**Q.** And the “onset of beneficial effects after delivery” value (nasal cavity; topical nasal delivery)?
**A.** ≤ 15 min

**Q.** For `CCNC(=O)[C@@H]1C[C@H](C)CC[C@H]1C(C)C` [WS-3], which EC50 (TRPM8 [4]) is on record?
**A.** 5.9 µM

**Q.** And the EC50 (TRPM8 [1])?
**A.** 210 µM

**Q.** What about the “Effects of 15 mg on tongue (duration)” value (tongue) of the same compound?
**A.** ~8 min

**Q.** What about the “Effects of 15 mg on tongue (sensation)” value (tongue) of the same compound?
**A.** pleasant cooling in oral cavity

**Q.** With `CCOC(=O)CNC(=O)[C@@H]1C[C@H](C)CC[C@H]1C(C)C` [WS-5] as the compound, how does the EC50 (TRPM8 [4]) read?
**A.** 0.5 µM

**Q.** What about the EC50 (TRPM8 [1]) of the same compound?
**A.** 26 µM

**Q.** What about the “Effects of 15 mg on tongue (duration)” value (tongue) of the same compound?
**A.** ~12 min

**Q.** What about the “Effects of 15 mg on tongue (sensation)” value (tongue) of the same compound?
**A.** pleasant cooling in oral cavity

**Q.** And the “Comments (sensation)” value (philtrum skin)?
**A.** pleasant cool sensations of skin

**Q.** And the “Duration (min) of cooling” value (philtrum skin)?
**A.** 51 ± 4 min

**Q.** And the “treatment of skin dysesthesia (insect bites, skin allergies, thermal injury)” value (“treatment of skin dysesthesia” below) (skin)?
**A.** ineffective

**Q.** For `COc1ccc(NC(=O)[C@@H]2C[C@H](C)CC[C@H]2C(C)C)cc1` [WS-12], which EC50 (TRPM8 [4]) is on record?
**A.** 22.1 µM

**Q.** And the “Effects of 15 mg on tongue (duration)” value (tongue)?
**A.** ~20 min

**Q.** What about the “Effects of 15 mg on tongue (sensation)” value (tongue) of the same compound?
**A.** pleasant cooling in oral cavity

**Q.** And the “Comments (sensation)” value (philtrum skin)?
**A.** pleasant cool sensations on skin

**Q.** And the “Duration (min) of cooling” value (philtrum skin)?
**A.** 38 ± 4 min

**Q.** What about the EC50 (TRPM8 [2]) of the same compound?
**A.** 0.2 µM

**Q.** What about the “treatment of skin dysesthesia” value (skin) of the same compound?
**A.** ineffective

**Q.** For `CNC(=O)C(C)(C(C)C)C(C)C` [WS-23], which EC50 (TRPM8 [4]) is on record?
**A.** 2.2 µM

**Q.** And the EC50 (TRPM8 [1])?
**A.** 1500 µM

**Q.** What about the “Effects of 15 mg on tongue (duration)” value (tongue) of the same compound?
**A.** too short-lived

**Q.** And the “Effects of 15 mg on tongue (sensation)” value (tongue)?
**A.** painful cold in throat

**Q.** And the “Effects of 15 mg on tongue (duration)” value (tongue; listed as 3804)?
**A.** ~18 min

**Q.** What about the “Comments (sensation)” value (philtrum skin) of the same compound?
**A.** short duration of action, no overt cold, but more

**Q.** What about the “Duration (min) of cooling” value (philtrum skin) of the same compound?
**A.** 25 ± 3 min

**Q.** What about the “treatment of skin dysesthesia” value (skin) of the same compound?
**A.** ineffective

**Q.** For `CC1CCC(C(C)C)C(C(=O)OCC(O)CO)C1` (centres unmarked) [WS-30], which EC50 (TRPM8 [2]) is on record?
**A.** 5.6 µM

**Q.** Which EC50 (TRPM8 [1]) does the source give for `O=C1NC(c2cccc([N+](=O)[O-])c2)=CCN1c1ccccc1O` [icilin] here?
**A.** 7 µM
